Data on 3 compounds can be found in PMC11875561, “Molecular Insights into the Heme‐Binding Potential of Plant NCR247‐Derived Peptides” (Chembiochem, 2025).

For experiment [1], the target named is NCR247_reduced. Description: UV/vis difference-spectroscopic titration of peptide (10 or 20 uM) with heme (0.4-40 uM) in 100 mM HEPES pH 7.0 after 1 min incubation, evaluated near 428 nm for one binding site. The protocol: (§1) Heme binding to the NCR247 parent peptide and its analogues was assessed using UV/vis spectroscopy (Table S2) following an earlier established experimental set‐up,[27, 30, 31, 32] with heme (0.4 to 40 μM) titrated to NCR247 peptide (20 μM) in 100 mM HEPES buffer (pH 7.0). […] The KD value for this peptide was first determined by adjusting the established protocol[30] to 1 min incubation time, while at an incubation time of 30 min concomitant oxidation of the cysteine residues has taken place as indicated by the fact that a stable complex was formed only in the first minutes and then a change in the spectrum occurred which is due to disulfide bond formation changing the heme‐binding behaviour of the peptide. […]
(§2) Heme binding to the NCR247-derived peptides (Fig. 1, Table S1) was investigated by UV/vis spectroscopy, as described earlier.[2,3,7– 9] […] Absorbance spectra were recorded on a Multiskan GO spectrophotometer (ThermoScientific, Dreieich, Germany) in the range of 300 - 600 nm. Difference spectra were generated by subtracting the spectra of heme and peptide alone from the absorbance spectrum of the hemin-peptide complex. Dissociation constants (KD) were determined by using GraphPad Prism 10.0.2 and the earlier established equation from Pîrnău and Bogdan, as described elsewhere.[7,10]

For experiment [2], the target named is NCR247_reduced. In words: UV/vis difference-spectroscopic titration of peptide (10 or 20 uM) with heme (0.4-40 uM) in 100 mM HEPES pH 7.0 after 30 min incubation at room temperature, one binding site. The protocol: Heme binding to the NCR247 parent peptide and its analogues was assessed using UV/vis spectroscopy (Table S2) following an earlier established experimental set‐up,[27, 30, 31, 32] with heme (0.4 to 40 μM) titrated to NCR247 peptide (20 μM) in 100 mM HEPES buffer (pH 7.0). […] time, while at an incubation time of 30 min concomitant oxidation of the cysteine residues has taken place as indicated by the fact that a stable complex was formed only in the first minutes and then a change in the spectrum occurred which is due to disulfide bond formation changing the heme‐binding behaviour of the peptide.
Figure 4 Heme‐binding analysis of NCR247 peptides. […] The complex formation was analysed after incubating it for 30 min at room temperature. The change in the spectral behaviour when measured after 1 min and 30 min of complex incubation is noteworthy. The intensity of the bands at λ =364 nm, indicate a change in the peptide and can be attributed to concomitant oxidation of free Cys residues in aqueous buffer systems, making the Soret band at λ =428 nm more prominent, similar to the one observed in case of the oxidized isomers. d, Peroxidase‐like activity assay of heme‐NCR247 complex measured using an oxidative conversion of TMB substrate at 652 nm. […]

Experiment [3] has as its target T1, NCR247_1-2,3-4.
T1 construct: synthetic 24mer, oxidized isomer, disulfides Cys4-Cys10 and Cys15-Cys21
The experiment is described as above. The protocol:
(§3) Heme binding to the NCR247 parent peptide and its analogues was assessed using UV/vis spectroscopy (Table S2) following an earlier established experimental set‐up,[27, 30, 31, 32] with heme (0.4 to 40 μM) titrated to NCR247 peptide (20 μM) in 100 mM HEPES buffer (pH 7.0). […] The KD value for this peptide was first determined by adjusting the established protocol[30] to 1 min incubation time, while at an incubation time of 30 min concomitant oxidation of the cysteine residues has taken place as indicated by the fact that a stable complex was formed only in the first minutes and then a change in the spectrum occurred which is due to disulfide bond formation changing the heme‐binding behaviour of the peptide.
(§4) Figure 4 Heme‐binding analysis of NCR247 peptides. UV/vis spectroscopic analysis upon addition of increasing concentrations of heme (0.4–40 μM) to NCR247 oxidized isomers (on the left), in silico docking analysis (in the middle) showing residues involved in heme binding and rRaman spectra of heme‐peptide (1 : 1) complex (on the right). a, NCR247_1–3,2–4. b, NCR247_1–2,3–4. c, NCR247_reduced form, with free Cys residues. The complex formation was analysed after incubating it for 30 min at room temperature. The change in the spectral behaviour when measured after 1 min and 30 min of complex incubation is noteworthy. The intensity of the bands at λ =364 nm, indicate a change in the peptide and can be attributed to concomitant oxidation of free Cys residues in aqueous buffer systems, making the Soret band at λ =428 nm more prominent, similar to the one observed in case of the oxidized isomers. d, Peroxidase‐like activity assay of heme‐NCR247 complex measured using an oxidative conversion of TMB substrate at 652 nm. […]
(§5) Under oxidative reaction conditions, the cysteines were deprotected and folded by formation of the disulfide bridges between the cysteines according to protocols reported earlier.[4,5] […]

Experiment [4] concerns the target T2, NCR247_1-3,2-4.
T2 construct: synthetic 24mer, oxidized isomer, disulfides Cys4-Cys15 and Cys10-Cys21
The description is as above. The procedure: as §3, §4, §5

The target of experiment [5] is T3, NCR247_1-4,2-3.
T3 construct: synthetic 24mer, oxidized isomer, disulfides Cys4-Cys21 and Cys10-Cys15
The experiment is described as above. The procedure: as §3, §4, §5

The target of experiment [6] is T4, MBP (Escherichia coli, UniProt P0AEX9).
T4 construct: gene malE; commercial (Rockland Inc.)
In words: UV/vis spectroscopic titration of MBP (10 uM) with heme (4-40 uM) in HEPES pH 7.0 after 30 min incubation, 1:1 model, Soret band near 400 nm. The class given is binding. Particulars: read-out: KD value, stoichiometry 1:1 (MBP:heme).
Method: We thus conducted UV/vis measurements[36, 41] by titrating increasing concentrations of heme (4–40 μM) to the protein (10 μM).
(§21) UV/vis titration experiments of peptides and proteins with heme.
(§22) Maltose-binding protein (Rockland Inc. Pennsylvania, USA) (10 µM) was preincubated with heme in different concentrations (4 - 40
(§23) µM) for 30 min in HEPES buffer (pH 7.0) prior to the UV/vis spectroscopic analysis. Subsequently, absorbance spectra were recorded
and analysed analogously to the heme-binding studies with the peptides described above.[2]

Experiment [7] addresses MBP-NCR247_1-4,2-3. Description: UV/vis spectroscopic titration of preformed MBP (10 uM) plus NCR247_1-4,2-3 (10 uM) with heme (4-45 uM), 30 min incubation, evaluated near 420 nm with a 1:1 model. Type of experiment: binding. Conditions: read-out: KD value, stoichiometry 1:1 (MBP-NCR247_1-4,2-3:heme). The procedure:
(§6) Peroxidase-like activity of the heme-peptide complexes.
(§7) 10 μl of the heme-peptide complex (final concentration:
(§8) (100%) and evaluated as the average of triplicate measurements.
(§9) Subsequently, absorbance spectra were recorded
(§10) Similar to the aforementioned approach,
(§11) NCR247 was added and measured spectroscopically.
(§12) Resonance Raman spectroscopy of the heme-peptide complexes.
(§13) -60°C (ANDOR, Ireland, 1024x127 pixels) used for detection.
(§14) were combined in an equimolar ratio.
(§15) The raw Raman spectra were
(§16) visualised using the graphing software OriginPro 2016G Sr2.
(§17) clipping (SNIP) algorithm, and vector normalisation.
(§18) Circular Dichroism (CD) spectroscopy with NCR247-derived peptides.
(§19) All the peptide solutions were prepared
(§20) prediction tool. […] The structure

In experiment [8] the target is MBP-NCR247_1-4,2-3. Description: UV/vis spectroscopic titration of preformed MBP (10 uM) plus NCR247_1-4,2-3 (10 uM) with heme (4-45 uM), 30 min incubation, evaluated with a model of two heme molecules per complex. Particulars: read-out: KD value, two heme molecules binding to the MBP-NCR247_1-4,2-3 complex. The procedure:
as §6, §7, §8, §9, §10, §11, §12, §13, §14, §15, §16, §17, §18, §19, §20

A short description of experiment [9]: UV/vis titration of MBP in complex with NCR247_1–4,2–3 with heme. Conditions: peptide versus MBP.
Method: as §21, §22, §23
and analysed analogously to the heme-binding studies with the peptides described above.[2] Similar to the aforementioned approach,
NCR247 was added and measured spectroscopically. In addition to this, 10 µM NCR247_1-4,2-3 was incubated with increasing
A short description of experiment [10]: UV/vis spectroscopy heme binding to NCR247-derived peptides. Particulars: 30 min incubation; Soret λ ~420 nm (oxidized isomers) or ~428 nm (reduced); n=1; peptide 20 μM, heme 0.4-40 μM, 100 mM HEPES pH 7.0. The procedure:
as §1, §2

Details of experiment [11]: method as in earlier work. Conditions: ref 11 (Sankari et al.); cited from earlier work.

Bridge positions count the residues as written; N and C are the ends. Ends that are not written are not given here.

Broadly, the Kd is the concentration at which binding is half-saturated.

`C=CC1=C(C)c2cc3[nH]c(cc4nc(cc5[nH]c(cc1n2)c(C)c5CCC(=O)O)C(CCC(=O)O)=C4C)c(C)c3C=C.[Fe+3]` [heme, Fe(III) protoporphyrin IX (Fe(III)PPIX, hemin)]: the Kd in [1] worked out at 1.44 µM; in experiment [2], 2270 nM; in experiment [3] it was 2980 nM; in experiment [4], 2090 nM; in experiment [5], 2800 nM; in experiment [6] it was 7200 nM. In addition, the dissociation constant (Kd) stood at 14900 nM in [7] and 7600 nM in [8].

For “NCR247_1–4,2–3: RNGCIVDPRCPYQQCRRPLYCRRR, isomer with bridges Cys4‐Cys21 and Cys10‐Cys15 (disulfide 10-15, 4-21)”, the “binding affinity of the peptide compared to the protein (MBP)” value in experiment [9] is “two‐fold higher”.

Regarding “NSR247: RNGSIVDPRSPYQQSRRPLYSRRR, mutant with all cysteine residues replaced with serine, negative control”, the KD heme binding result in experiment [10] is “n.b. and completely lost and absence of heme binding”. Besides, the heme-binding affinity result in [11] was “μM range”.
